Reference: patent US10894784B2, “Heteroarylbenzimidazole compounds” (BAYER PHARMA AKTIENGESELLSCHAFT, priority 2015, dated 2021)
pIC50: −log10 of the molar value.

The compounds below were run against TBK1 (Homo sapiens (Human), UniProt Q9UHD2) (assay: TBK1 low ATP kinase assay (in vitro assay 1)). Conditions: in vitro assay 1, read-out: TBK1 low ATP kinase assay IC50.
Sequence of TBK1 (Q9UHD2 whole entry): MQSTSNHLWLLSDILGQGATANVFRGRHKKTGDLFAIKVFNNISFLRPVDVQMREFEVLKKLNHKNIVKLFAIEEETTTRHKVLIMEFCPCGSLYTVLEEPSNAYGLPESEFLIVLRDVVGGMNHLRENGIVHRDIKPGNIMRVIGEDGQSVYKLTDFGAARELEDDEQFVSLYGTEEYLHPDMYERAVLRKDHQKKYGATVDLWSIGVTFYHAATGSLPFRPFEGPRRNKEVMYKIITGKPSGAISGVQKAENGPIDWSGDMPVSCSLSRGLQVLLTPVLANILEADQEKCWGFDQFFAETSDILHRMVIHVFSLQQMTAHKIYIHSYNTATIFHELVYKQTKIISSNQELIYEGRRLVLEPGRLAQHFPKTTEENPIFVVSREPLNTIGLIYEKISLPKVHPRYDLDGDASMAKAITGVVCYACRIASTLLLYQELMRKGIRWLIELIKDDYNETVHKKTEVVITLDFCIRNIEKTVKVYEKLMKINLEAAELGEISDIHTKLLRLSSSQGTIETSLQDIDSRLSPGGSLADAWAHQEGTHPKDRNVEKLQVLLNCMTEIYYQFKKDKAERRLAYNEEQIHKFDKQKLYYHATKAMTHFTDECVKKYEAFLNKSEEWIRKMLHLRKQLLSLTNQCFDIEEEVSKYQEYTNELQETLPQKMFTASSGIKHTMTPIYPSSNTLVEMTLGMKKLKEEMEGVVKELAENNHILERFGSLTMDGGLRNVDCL
Type: biochemical
A pIC50 of 8.03 was found for `CC(c1ccnc(Nc2nc3ccc(-c4cnn(CC5CC5)c4)c(Cl)c3[nH]2)c1)N1CCN(C(=O)OC(C)(C)C)CC1` (single isomer, unassigned) [Example 122.01, tert-butyl 4-{(1R or 1S)-1-[2-({7-chloro-6-[1-(cyclopropylmethyl)-1H-pyrazol-4-yl]-1H-benzimidazol-2-yl}amino)pyridin-4-yl]ethyl}piperazine-1-carboxylate] in this work.
A pIC50 of 6.17 was found for `Cn1ncnc1-c1ccc2nc(Nc3cc(CN4CCN(C(=O)CC(F)(F)F)CC4)ccn3)[nH]c2c1` [Example 41.02, 3,3,3-trifluoro-1-{4-[(2-{[6-(1-methyl-1H-1,2,4-triazol-5-yl)-1H-benzimidazol-2-yl]amino}pyridin-4-yl)methyl]piperazin-1-yl}propan-1-one] in this work.
A pIC50 of 6.53 was found for `CCOc1cnc(C)cc1-c1ccc2nc(Nc3cc(CN4CCN(C(=O)C5CC5)CC4)ccn3)[nH]c2c1` [Example 09.02, cyclopropyl{4-[(2-{[6-(5-ethoxy-2-methylpyridin-4-yl)-1H-benzimidazol-2-yl]amino}pyridin-4-yl)methyl]piperazin-1-yl}methanone] in this work.
A pIC50 of 7.38 was found for `COc1cncnc1-c1ccc2nc(Nc3cc(CN4CCN(S(=O)(=O)N5CC(C)OC(C)C5)CC4)ccn3)[nH]c2c1` (centres unmarked) [Example 35.01.18, N-[4-({4-[(2,6-dimethylmorpholin-4-yl)sulfonyl]piperazin-1-yl}methyl)pyridin-2-yl]-6-(5-methoxypyrimidin-4-yl)-1H-benzimidazol-2-amine] in this work.
A pIC50 of 7.72 was found for `O=C(C1CC1)N1CCN(Cc2ccnc(Nc3nc4ccc(-c5ccnc(N6CCOCC6)c5)cc4[nH]3)c2)CC1` [Example 134.03, cyclopropyl(4-{[2-({6-[2-(morpholin-4-yl)pyridin-4-yl]-1H-benzimidazol-2-yl}amino)pyridin-4-yl]methyl}piperazin-1-yl)methanone] in this work.
A pIC50 of 7.78 was found for `CC(c1ccnc(Nc2nc3ccc(-c4cnn(CC5CC(F)(F)C5)c4)cc3[nH]2)c1)N1CCN(C(=O)C2CC2)CC1` (single isomer, unassigned) [Example 169.03, cyclopropyl{4-[(1R or 1S)-1-{2-[(6-{1-[(3,3-difluorocyclobutyl)methyl]-1H-pyrazol-4-yl}-1H-benzimidazol-2-yl)amino]pyridin-4-yl}ethyl]piperazin-1-yl}methanone] in this work.
A pIC50 of 6.19 was found for `COc1cnccc1-c1ccc2nc(Nc3cc(CN4CCN(C(=O)C5CCC5)CC4)ccn3)[nH]c2c1OCC(C)C` [Example 50.03, cyclobutyl{4-[(2-{[6-(3-methoxypyridin-4-yl)-7-(2-methylpropoxy)-1H-benzimidazol-2-yl]amino}pyridin-4-yl)methyl]piperazin-1-yl}methanone] in this work.
A pIC50 of 6.25 was found for `O=C(CC(F)(F)F)N1CCN(Cc2ccnc(Nc3nc4ccc(-c5ncccn5)cc4[nH]3)c2)CC1` [Example 180.02, 3,3,3-trifluoro-1-{4-[(2-{[6-(pyrimidin-2-yl)-1H-benzimidazol-2-yl]amino}pyridin-4-yl)methyl]piperazin-1-yl}propan-1-one] in this work.
A pIC50 of 7.82 was found for `CC(C)c1cc(-c2ccc3nc(Nc4cc(CN5CCN(C(=O)C6CC6)CC5)ccn4)[nH]c3c2)ncn1` [Example 78.02, cyclopropyl(4-{[2-({6-[6-(propan-2-yl)pyrimidin-4-yl]-1H-benzimidazol-2-yl}amino)pyridin-4-yl]methyl}piperazin-1-yl)methanone] in this work.
A pIC50 of 8.03 was found for `O=C(C1CC1)N1CCN(Cc2ccnc(Nc3nc4ccc(-c5cc(C6CC6)ncn5)cc4[nH]3)c2)CC1` [Example 76.02, cyclopropyl{4-[(2-{[6-(6-cyclopropylpyrimidin-4-yl)-1H-benzimidazol-2-yl]amino}pyridin-4-yl)methyl]piperazin-1-yl}methanone] in this work.
A pIC50 of 5.42 was found for `COc1ncccc1-c1ccc2nc(Nc3cc(CN4CCN(C(=O)C5CC5)CC4)ccn3)[nH]c2c1` [Example 15.03, cyclopropyl{4-[(2-{[6-(2-methoxypyridin-3-yl)-1H-benzimidazol-2-yl]amino}pyridin-4-yl)methyl]piperazin-1-yl}methanone] in this work.
